Values quoted from earlier work, collected in patent US6653352B2, “Pain reliever and method of use” (Medical Merchandising, Inc., priority 1999, dated 2003).

Conditions: in fats, oils and alcohols

COc1cc(CNC(=O)CCCC/C=C/C(C)C)ccc1O [Capsaicin, N-Vanillyl-8-methyl-6-(E)-noneamide]
solubility: very soluble in fats, oils and alcohols
